US11345707B2, “Atropisomerism for increased kinase inhibitor selectivity” (SAN DIEGO STATE UNIVERSITY RESEARCH FOUNDATION, priority 2015, dated 2022)

How the values were obtained:
[1] = Experimental measurement of the barriers to rotation (racemization followed by chiral HPLC); type: physicochemical
Experimental: The enantiomerically enriched analogues were then dissolved in ethanol and placed in a sealed 2-dram vial and heated under constant temperature on an aluminum block. At each time point, an aliquot of the mixture was removed and quenched in an HPLC vial containing ice cold 80:20 hexanes:ethanol. […] The timepoint and enantiomeric excess (ee) data was then plotted in order to determine an observed rate constant, kobs, at the corresponding temperature. The barrier to rotation was then calculated using the relationship of kracemization=2*kenantiomerization and then substituted into the Gibbs Free Energy Equation:
[formula] where h=Planck Constant, kb=Boltzmann Constant, T=Temp. (K), R=Gas Constant.

[2] = system: panel of tyrosine kinases; assay: Kinase inhibitor profiling across a panel of tyrosine kinases (Z′-LYTE), selectivity score; type: biochemical
Experimental: To analyze each analog's selectivity across the panel we turned to selectivity scores (Davis et al., Nat. Biotechnol. 2011, 29, 1046-51), simply the number of kinases inhibited above a certain threshold divided by the number of kinases evaluated. […] For example at 1000 nM 2e-(R) yielded an S(40%) of 0.11 while 2e-(S) gave an S(40%) of 0.16. […] Differences in selectivity between 2e-(R) and 2e-(S) at 5000 nM (4.5 times the IC50 of 2e-(S) toward Src) and for 5 at 1000 nM (6.25 times the IC50 of 5 toward Src) can be viewed graphically across tyrosine kinases (FIG. 3). Importantly, similar trends were also observed across each of the atropisomeric series tested.
All samples were sent out to Life Technologies to obtain kinase inhibition data. A brief description of the assays and analyses are included below.
Assay Theory (SelectScreen® Kinase Profiling Services (Life Technologies, Madison, Wis. USA). The Z′-LYTE® biochemical assay employs a fluorescence-based, coupled-enzyme format and is based on the differential sensitivity of phosphorylated and non-phosphorylated peptides to proteolytic cleavage. The peptide substrate is labeled with two fluorophores—one at each end—that make up a FRET pair.
In the primary reaction, the kinase transfers the gamma-phosphate of ATP to a single tyrosine, serine or threonine residue in a synthetic FRET-peptide. In the secondary reaction, a site-specific protease recognizes and cleaves non-phosphorylated FRET-peptides. Phosphorylation of FRET-peptides suppresses cleavage by the Development Reagent. Cleavage disrupts FRET between the donor (i.e., coumarin) and acceptor (i.e., fluorescein) fluorophores on the FRET-peptide, whereas uncleaved, phosphorylated FRET-peptides maintain FRET. A ratiometric method, which calculates the ratio (the Emission Ratio) of donor emission to acceptor emission after excitation of the donor fluorophore at 400 nm, is used to quantitate reaction progress, as shown in the equation below: […]
A significant benefit of this ratiometric method for quantitating reaction progress is the elimination of well-to-well variations in FRET-peptide concentration and signal intensities. As a result, the assay yields very high Z′-factor values (>0.7) at a low percent phosphorylation. Both cleaved and uncleaved FRET-peptides contribute to the fluorescence signals and therefore to the Emission Ratio. The extent of phosphorylation of the FRET-peptide can be calculated from the Emission Ratio. The Emission Ratio will remain low 1f the FRET-peptide is phosphorylated (i.e., no kinase inhibition) and will be high 1f the FRET-peptide is non-phosphorylated (i.e., kinase inhibition).
Both cleaved and uncleaved FRET-peptides contribute to the fluorescence signals and therefore to the Emission Ratio. The extent of phosphorylation of the FRET-peptide can be calculated from the Emission Ratio. The Emission Ratio will remain low 1f the FRET-peptide is phosphorylated (i.e., no kinase inhibition) and will be high 1f the FRET-peptide is non-phosphorylated (i.e., kinase inhibition).

Row | SMILES | t1/2 to Racemization at 37° C. [1] [days] | S(40%): number of kinases inhibited greater than 40% divided by number of kinases tested (including Src) ([2]; 1000 nM) | S(40%): number of kinases inhibited greater than 40% divided by number of kinases tested (including Src) ([2]; 5000 nM) | S(40%): number of kinases inhibited greater than 40% divided by number of kinases tested (including Src) ([2]; 200 nM) | activity for the tyrosine kinase panel tested ([2]; 200 nM and 1000 nM)
1 | COc1ccc(Cl)c(-c2c(Cl)n(C3CCCC3)c3ncnc(N)c23)c1 (racemic) [Compound 1e, 6-chloro-5-(2-chloro-5-methoxyphenyl)-7-cyclopentyl-7H-pyrrolo[2,3-d]pyrimidin-4-amine] | 18 |  |  |  | 
2 | COc1ccc(Cl)c(-c2c(Cl)n(C(C)(C)C)c3ncnc(N)c23)c1 (single isomer, unassigned) [2e-(S), 7-(tert-butyl)-6-chloro-5-(2-chloro-5-methoxyphenyl)-7H-pyrrolo[2,3-d]pyrimidin-4-amine] |  | 0.16 | 0.61 |  | 
3 | COc1cccc(-c2cn(C(C)(C)C)c3ncnc(N)c23)c1 [Compound 5, reference compound] |  | 0.72 |  | 0.44 | near pan activity
4 | COc1ccc(Cl)c(-c2c(Cl)n(C(C)(C)C)c3ncnc(N)c23)c1 (single isomer, unassigned) [2e-(R), 7-(tert-butyl)-6-chloro-5-(2-chloro-5-methoxyphenyl)-7H-pyrrolo[2,3-d]pyrimidin-4-amine] |  | 0.11 | 0.44 |  | 
